Structures can show the parent of a compound that is named as a salt.
Tested on: Caco-2 cell
Test: Caco-2 monolayer cell transmission rate (in vitro intestinal absorption model)
Type: in vitro ADME, human
Excerpt: The common use of the activity selection model for the in vitro intestinal absorption comprises: (1) Carcinoms (Caco-2); (2) Using Chamber; (3) Everted Gut Sac. Basically, there is no difference for those three drug-activity-selection models when they are used for evaluating the activity selection. However, in terms of the cell source from human, a cell line is predominant. Moreover, with the cellular metabolism being similar to human intestines, Caco-2 becomes an excellent tool in the study of intestine absorption. Therefore, in the comparison of the in vitro transmission rate between gabapentin and gabapentin derivatives, the Caco-2 system is still the favorable model.
The research for studying gabapentin and the derivatives thereof in the present invention includes: Caco-2 cell activation, Caco-2 monolayer cell cultivation, resistance value measurement, effect of time to gabapentin transmission rate, and comparison of transmission rate between gabapentin and gabapentin derivatives. In constructing the Caco-2 monolayer, the original cell line is the human colon adenocarcinoma cell (Caco-2), and its data sheet is listed as Table 2.
The Caco-2 cell is activated appropriately, and seeded in the transwell at 37° C. in an amount of about 1×10^5. The aliquot is cultivated in 5% CO2 at 37° C. and replaced with a fresh medium every 3 to 4 days, and then the monolayer cell is obtained by the 21 days cultivation. The integrity of the Caco-2 cell is further characterized by tissue section and resistance value measurement.
HPLC Analysis: Intersil ODS-3V 250*4.6 mm column, Solvent: MeOH/H2O=10:90 to 70:30 with 0.1% of NH4OAc, Flow rate=1.0 ml/min, ELSD: Evaporative Light Scattering Detector. Every derivative has been repeated for 3 times in analysis, 4 hr later, the sample is analyzed for the transmission rate and then averaged to account its transmission fold.

[1] = Caco-2 monolayer, 4 h, mean of 3 repeats, HPLC-ELSD
[2] = ratio of Caco-2 transmission rate to GBP.HCl, 4 h

Q: `NCC1(CC(=O)O)CCCCC1` [Control 1, Gabapentin HCl, reference compound] was tested. Which “Caco-2 Cell Mean Total Transmission rate 4 h (%)” value [1] did it give?
A: The value was 1.1%.

Q: And the “gbp-prodrug/gbp Transmission Fold” value [2]?
A: Its value is 1 Fold.

Q: How did the “Caco-2 Cell Mean Total Transmission rate 4 h (%)” value [1] turn out when `CC(C)C[C@@H](NC(=O)OC(C)(C)C)C(=O)NCC1(CC(=O)O)CCCCC1` [Embodiment 1, {1-[(2R-tert-Butoxycarbonylamino-4-methyl-pentanoylamino)-methyl]-cyclohexyl}-acetic acid] was run?
A: The value was 29%.

Q: What about the “gbp-prodrug/gbp Transmission Fold” value [2] of the same molecule?
A: The value was 26.4 Fold.

Q: With `CC(C)(C)OC(=O)NC(C(=O)NCC1(CC(=O)O)CCCCC1)c1ccccc1` (stereo not shown) [Embodiment 3, {1-[(2-tert-Butoxycarbonylamino-2-phenyl-acetylamino)-methyl]-cyclohexyl}-acetic acid] as the molecule, how does the “Caco-2 Cell Mean Total Transmission rate 4 h (%)” value [1] read?
A: Its value is 3.1%.

Q: What about the “gbp-prodrug/gbp Transmission Fold” value [2] of the same molecule?
A: Its value is 2.8 Fold.

Q: `CC(C)(C)OC(=O)NC(Cc1ccccc1)C(=O)NCC1(CC(=O)O)CCCCC1` (stereo not shown) [Embodiment 4, {1-[(2-tert-Butoxycarbonylamino-3-phenyl-propionylamino)-methyl]-cyclohexyl}-acetic acid] was tested. Which “Caco-2 Cell Mean Total Transmission rate 4 h (%)” value [1] did it give?
A: The value was 10%.

Q: What about the “gbp-prodrug/gbp Transmission Fold” value [2] of the same molecule?
A: The value was 9.1 Fold.

Q: Which results are given for `CSCCC(NC(=O)OC(C)(C)C)C(=O)NCC1(CC(=O)O)CCCCC1` (stereo not shown) [Embodiment 5, {1-[(2-tert-Butoxycarbonylamino-4-methylsulfanyl-butyrylamino)-methyl]-cyclohexyl}-acetic acid]?
A: Caco-2 Cell Mean Total Transmission rate 4 h (%) [1]: 26%; gbp-prodrug/gbp Transmission Fold [2]: 23.6 Fold

Q: How did the “Caco-2 Cell Mean Total Transmission rate 4 h (%)” value [1] turn out when `CC(C)(C)OC(=O)NCC1(CC(=O)NCC2(CC(=O)O)CCCCC2)CCCCC1` [Embodiment 6, [1-({2-[1-(tert-Butoxycarbonylamino-methyl)-cyclohexyl]-acetylamino}-methyl)-cyclohexyl]-acetic acid] was run?
A: Its value is 27%.

Q: What about the “gbp-prodrug/gbp Transmission Fold” value [2] of the same molecule?
A: The value was 24.5 Fold.

Q: Which “Caco-2 Cell Mean Total Transmission rate 4 h (%)” value (human, Caco-2, 4 h) does the source give for `CCOC(=O)CC1(CNC(=O)C2CCNCC2)CCCCC1` [Embodiment 7, (1-{[(Piperidine-4-carbonyl)-amino]-methyl}-cyclohexyl)-acetic acid ethyl ester] here?
A: Its value is 1%.

Q: What about the “gbp-prodrug/gbp Transmission Fold” value (human, Caco-2, 4 h) of the same molecule?
A: Its value is 0.9 Fold.

Q: Which results are given for `CCOC(=O)CC1(CNC(=O)c2ccccc2)CCCCC1` [Embodiment 8, [1-(Benzoylamino-methyl)-cyclohexyl]-acetic acid ethyl ester]?
A: Caco-2 Cell Mean Total Transmission rate 4 h (%) (human, Caco-2, 4 h): 21.4%; gbp-prodrug/gbp Transmission Fold (human, Caco-2, 4 h): 19.5 Fold

Q: With `CCOC(=O)CC1(CNC(=O)C2(N)CCCCC2)CCCCC1` [Embodiment 9, (1-{[(1-Amino-cyclohexanecarbonyl)-amino]-methyl}-cyclohexyl)-acetic acid ethyl ester] as the molecule, how does the “Caco-2 Cell Mean Total Transmission rate 4 h (%)” value (human, Caco-2, 4 h) read?
A: The value was 10.4%.

Q: And the “gbp-prodrug/gbp Transmission Fold” value (human, Caco-2, 4 h)?
A: The value was 9.5 Fold.

Q: How did the “Caco-2 Cell Mean Total Transmission rate 4 h (%)” value (human, Caco-2, 4 h) turn out when `CC(C)(C)OC(=O)NC(CO)C(=O)NCC1(CC(=O)O)CCCCC1` (stereo not shown) [Embodiment 10, {1-[(2-tert-Butoxycarbonylamino-3-hydroxy-propionylamino)-methyl]-cyclohexyl}-acetic acid] was run?
A: Its value is 20.7%.

Q: And the “gbp-prodrug/gbp Transmission Fold” value (human, Caco-2, 4 h)?
A: Its value is 18.8 Fold.

Q: What does the source list for `CCOC(=O)CC1(CNC(=O)C(C)N)CCCCC1` (stereo not shown) [Embodiment 11, {1-[(2-Amino-propionylamino)-methyl]-cyclohexyl}-acetic acid ethyl ester]?
A: Caco-2 Cell Mean Total Transmission rate 4 h (%) (human, Caco-2, 4 h): 17.6%; gbp-prodrug/gbp Transmission Fold (human, Caco-2, 4 h): 16.0 Fold

Q: For `CCOC(=O)C(Cc1ccccc1)NC(=O)C(C)NC(=O)CC1(CN)CCCCC1` (stereo not shown) [Embodiment 12, 2-{2-[2-(1-Aminonethyl-cyclohexyl)-acetylamino]-propionylamino}-3-phenyl-propionic acid ethyl ester], which “Caco-2 Cell Mean Total Transmission rate 4 h (%)” value [1] is on record?
A: The value was 2.83%.

Q: What about the “gbp-prodrug/gbp Transmission Fold” value [2] of the same molecule?
A: The value was 2.6 Fold.

Q: Which “Caco-2 Cell Mean Total Transmission rate 4 h (%)” value (human, Caco-2, 4 h) does the source give for `CCOC(=O)CC1(CNC(=O)C(N)CC(C)C)CCCCC1` (stereo not shown) [Embodiment 13, {1-[(2-Amino-4-methyl-pentanoylamino)-methyl]-cyclohexyl}-acetic acid ethyl ester] here?
A: The value was 12.37%.

Q: What about the “gbp-prodrug/gbp Transmission Fold” value (human, Caco-2, 4 h) of the same molecule?
A: Its value is 11.2 Fold.

Q: What does the source list for `CCOC(=O)CC1(CNC(=O)C(N)CO)CCCCC1` (stereo not shown) [Embodiment 14, {1-[(2-Amino-3-hydroxy-propionylamino)-methyl]-cyclohexyl}-acetic acid ethyl ester]?
A: Caco-2 Cell Mean Total Transmission rate 4 h (%) (human, Caco-2, 4 h): 10.95%; gbp-prodrug/gbp Transmission Fold (human, Caco-2, 4 h): 10.0 Fold

Q: For `CC(C)(C)OC(=O)NC(Cc1ccccc1)C(=O)NCC1(CC(=O)O)CCCCC1` (stereo not shown) [Embodiment 15, {1-[(2-tert-Butoxycarbonylamino-3-phenyl-propionylamino)-methyl]-cyclohexyl}-acetic acid], which “Caco-2 Cell Mean Total Transmission rate 4 h (%)” value [1] is on record?
A: Its value is 0.93%.

Q: And the “gbp-prodrug/gbp Transmission Fold” value [2]?
A: The value was 0.8 Fold.

Q: How did the “Caco-2 Cell Mean Total Transmission rate 4 h (%)” value (human, Caco-2, 4 h) turn out when `CCOC(=O)CC1(CNC(=O)C(N)Cc2ccccc2)CCCCC1` (stereo not shown) [Embodiment 16, {1-[(2-Amino-3-phenyl-propionylamino)-methyl]-cyclohexyl}-acetic acid ethyl ester] was run?
A: The value was 10.30%.

Q: What about the “gbp-prodrug/gbp Transmission Fold” value (human, Caco-2, 4 h) of the same molecule?
A: The value was 9.4 Fold.

Q: Which “Caco-2 Cell Mean Total Transmission rate 4 h (%)” value (human, Caco-2, 4 h) does the source give for `CCOC(=O)CC1(CNC(=O)C(N)C(C)CC)CCCCC1` (stereo not shown) [Embodiment 17, {1-[(2-Amino-3-methyl-pentanoylamino)-methyl]-cyclohexyl}-acetic acid ethyl ester] here?
A: The value was 9.47%.

Q: What about the “gbp-prodrug/gbp Transmission Fold” value (human, Caco-2, 4 h) of the same molecule?
A: Its value is 8.6 Fold.

Q: How did the “Caco-2 Cell Mean Total Transmission rate 4 h (%)” value (human, Caco-2, 4 h) turn out when `CCOC(=O)CC1(CNC(=O)c2ccccc2CN)CCCCC1` [Embodiment 18, {1-[(2-Aminomethyl-benzoylamino)-methyl]-cyclohexyl}-acetic acid ethyl ester] was run?
A: Its value is 2.13%.

Q: And the “gbp-prodrug/gbp Transmission Fold” value (human, Caco-2, 4 h)?
A: The value was 1.9 Fold.

Q: For `CCOC(=O)CC1(CNC(=O)C2CCC(CN)CC2)CCCCC1` (stereo not shown) [Embodiment 19, (1-{[(4-Aminomethyl-cyclohexanecarbonyl)-amino]-methyl}-cyclohexyl)-acetic acid ethyl ester], which “Caco-2 Cell Mean Total Transmission rate 4 h (%)” value (human, Caco-2, 4 h) is on record?
A: Its value is 11.14%.

Q: And the “gbp-prodrug/gbp Transmission Fold” value (human, Caco-2, 4 h)?
A: The value was 10.1 Fold.

Q: How did the “Caco-2 Cell Mean Total Transmission rate 4 h (%)” value [1] turn out when `CCOC(=O)CC1(CNC(=O)C(CC(C)C)NC(=O)CC2(CN)CCCCC2)CCCCC1` (stereo not shown) [Embodiment 20, [1-({2-[2-(1-Aminomethyl-cyclohexyl)-acetylamino]-4-methyl-pentanoylamino}-methyl)-cyclohexyl]-acetic acid ethyl ester] was run?
A: Its value is 12.22%.

Q: And the “gbp-prodrug/gbp Transmission Fold” value [2]?
A: Its value is 11.1 Fold.

Q: Which “Caco-2 Cell Mean Total Transmission rate 4 h (%)” value [1] does the source give for `CCOC(=O)CC1(CNC(=O)C(NC(=O)CC2(CN)CCCCC2)c2ccccc2)CCCCC1` (stereo not shown) [Embodiment 21, [1-({2-[2-(1-Aminomethyl-cyclohexyl)-acetylamino]-2-phenyl-acetylamino}-methyl)-cyclohexyl]-acetic acid ethyl ester] here?
A: Its value is 8.58%.

Q: And the “gbp-prodrug/gbp Transmission Fold” value [2]?
A: The value was 7.8 Fold.

Q: How did the “Caco-2 Cell Mean Total Transmission rate 4 h (%)” value [1] turn out when `CCOC(=O)CC1(CNC(=O)C(Cc2ccccc2)NC(=O)CC2(CN)CCCCC2)CCCCC1` (stereo not shown) [Embodiment 22, [1-({2-[2-(1-Aminomethyl-cyclohexyl)-acetylamino]-3-phenyl-propionylamino}-methyl)-cyclohexyl]-acetic acid ethyl ester] was run?
A: The value was 9.26%.

Q: And the “gbp-prodrug/gbp Transmission Fold” value [2]?
A: The value was 8.4 Fold.

Q: How did the “Caco-2 Cell Mean Total Transmission rate 4 h (%)” value [1] turn out when `NCC1(CC(=O)N2CCCC2C(=O)NCC2(CC(=O)O)CCCCC2)CCCCC1` (stereo not shown) [Embodiment 23, {1-[({1-[2-(1-Aminomethyl-cyclohexyl)-acetyl]-pyrrolidine-2-carbonyl}-amino)-methyl]-cyclohexyl}-acetic acid] was run?
A: The value was 10.73%.

Q: And the “gbp-prodrug/gbp Transmission Fold” value [2]?
A: Its value is 9.8 Fold.

Q: With `CCOC(=O)CC1(CNC(=O)c2ccc(O)c(OC)c2)CCCCC1` [Embodiment 24, {1-[(4-Hydroxy-3-methoxy-benzoylamino)-methyl]-cyclohexyl}-acetic acid ethyl ester] as the molecule, how does the “Caco-2 Cell Mean Total Transmission rate 4 h (%)” value (human, Caco-2, 4 h) read?
A: The value was 13.59%.

Q: What about the “gbp-prodrug/gbp Transmission Fold” value (human, Caco-2, 4 h) of the same molecule?
A: Its value is 12.4 Fold.

Q: For `CCOC(=O)CC1(CNC(=O)C2CCC(=O)N2)CCCCC1` (stereo not shown) [Embodiment 25, (1-{[(5-Oxo-pyrrolidine-2-carbonyl)-amino]-methyl}-cyclohexyl)-acetic acid ethyl ester], which “Caco-2 Cell Mean Total Transmission rate 4 h (%)” value (human, Caco-2, 4 h) is on record?
A: The value was 5.68%.

Q: And the “gbp-prodrug/gbp Transmission Fold” value (human, Caco-2, 4 h)?
A: Its value is 5.2 Fold.

Q: How did the “Caco-2 Cell Mean Total Transmission rate 4 h (%)” value (human, Caco-2, 4 h) turn out when `CCOC(=O)CC1(CNC(=O)C(N)CCSC)CCCCC1` (stereo not shown) [Embodiment 26, {1-[(2-Amino-4-methylsulfanyl-butyrylamino)-methyl]-cyclohexyl}-acetic acid ethyl ester] was run?
A: The value was 9.02%.

Q: What about the “gbp-prodrug/gbp Transmission Fold” value (human, Caco-2, 4 h) of the same molecule?
A: The value was 8.2 Fold.

Q: `CCOC(=O)CC1(CNC(=O)c2cccnc2)CCCCC1` [Embodiment 27, (1-{[(Pyridine-3-carbonyl)-amino]-methyl}-cyclohexyl)-acetic acid ethyl ester] was tested. Which “Caco-2 Cell Mean Total Transmission rate 4 h (%)” value (human, Caco-2, 4 h) did it give?
A: The value was 9.39%.

Q: What about the “gbp-prodrug/gbp Transmission Fold” value (human, Caco-2, 4 h) of the same molecule?
A: The value was 8.5 Fold.

Q: With `CCOC(=O)CC1(CNC(=O)C(C)N)CCCCC1` (stereo not shown) [Embodiment 28, {1-[(2-Amino-propionylamino)-methyl]-cyclohexyl}-acetic acid ethyl ester] as the molecule, how does the “Caco-2 Cell Mean Total Transmission rate 4 h (%)” value (human, Caco-2, 4 h) read?
A: Its value is 8.11%.

Q: What about the “gbp-prodrug/gbp Transmission Fold” value (human, Caco-2, 4 h) of the same molecule?
A: The value was 7.4 Fold.

Q: `CCOC(=O)CC1(CNC(=O)C(N)C(C)C)CCCCC1` (stereo not shown) [Embodiment 29, {1-[(2-Amino-3-methyl-butyrylamino)-methyl]-cyclohexyl}-acetic acid ethyl ester] was tested. Which “Caco-2 Cell Mean Total Transmission rate 4 h (%)” value (human, Caco-2, 4 h) did it give?
A: Its value is 8.73%.

Q: And the “gbp-prodrug/gbp Transmission Fold” value (human, Caco-2, 4 h)?
A: Its value is 7.9 Fold.

Source: patent publication US7037939B2, “Compound and derivative of gabapentin” (Industrial Technology Research Institue, priority 2002, dated 2006)
